Experimental data published in US9273084B2, “Moenomycin analogs, methods of synthesis, and uses thereof” (priority 2012, dated 2016).

How the values were obtained:
Assay type in all cases: cell-based
[1] = system: S. pneumoniae #1629; assay: MIC assay, 96 well broth dilution with MTT staining; conditions: TSB containing 5% sheep blood, 35-37° C., 20 h
Experimental: (§1) A 96 well plate with 100 μL test medium in all wells was prepared by handheld multipipettor. A stock solution of the antibiotic or compound in DMSO (0.05˜10 mg/mL, 5 μL) and the same medium (95 μL) were put together into column one, where the compound concentration doubled the highest one to be tested. Two columns were necessary for each compound to check the reproducibility. The compound was diluted by adding 100 μL from column one to column two with a 50% volume mix done three times; diluting serially across the plate was continued.
(§2) The day before the assay was scheduled to be run, strains were suspended in the test media (Brain Heart Infusion (BHI) containing 0.1% casamino acids for S. aureus, S. epidermidis, and E. faecalis, Trypticase Soy Broth (TSB) containing 5% sheep blood for S. pneumoniae, and Lysogeny Broth (LB) for E. coli) and incubated overnight at 35-37° C. The suspension was diluted with the same media to 1%, 100 μL of which was added to each well of the MIC plate. The MIC plate was incubated at 35-37° C. for 20 h. A thiazolyl blue tetrazolium bromide (MTT) solution (1 mg/mL-water, 50 μL) was added into each well and the resulting MIC plate was incubated at 35-37° C. for a few hours to stain wells in which cell proliferated. Growth is also visible as any turbidity in wells.

[2] = system: S. pneumoniae 6303; assay: as above; conditions: TSB containing 5% sheep blood, 35-37° C., 20 h
Experimental: as §1, §2

[3] = system: S. aureus 13709; assay: as above; parameters: unit not given beside the values; conditions: BHI containing 0.1% casamino acids, 35-37° C., 20 h
Experimental: as §1, §2

[4] = system: E. faecalis 29212; assay: as above; parameters: unit not given beside the values; conditions: BHI containing 0.1% casamino acids, 35-37° C., 20 h
Experimental: as §1, §2

[5] = system: E. faecalis 33186; assay: as above; parameters: unit not given beside the values; conditions: BHI containing 0.1% casamino acids, 35-37° C., 20 h
Experimental: as §1, §2

[6] = system: S. epidermidis 700562; assay: as above; parameters: unit not given beside the values; conditions: BHI containing 0.1% casamino acids, 35-37° C., 20 h
Experimental: as §1, §2

[7] = system: S. epidermidis 1228; assay: as above; parameters: unit not given beside the values; conditions: BHI containing 0.1% casamino acids, 35-37° C., 20 h
Experimental: as §1, §2

[8] = system: S. aureus 25923; assay: as above; parameters: unit not given beside the values; conditions: S. aureus 25923 (second strain line); BHI containing 0.1% casamino acids; 35-37° C., 20 h
Experimental: as §1, §2

[9] = system: E. coli MG1655; assay: as above; parameters: unit not given beside the values; conditions: LB, 35-37° C., 20 h
Experimental: as §1, §2

[10] = system: E. coli NR698; parameters: unit not given beside the values; conditions: LB, 35-37° C., 20 h
Experimental: as §1, §2

[11] = S. aureus 13709 (first strain line)
[12] = S. aureus 13709 (third strain line)

Row | Compound | MIC [1] | MIC [2] | MIC [3, 11] | MIC [3, 12] | MIC [4] | MIC [5] | MIC [6] | MIC [7] | MIC [8] | MIC [9] | MIC [10]
1 | CC(=O)NC1C(OC2C(COC3OC(CO)C(O)C(O)C3O)OC(OC3C(OP(=O)(O)OCC(OCc4cccc(OCc5cccc(-c6cccc(C)c6)c5)c4)C(=O)O)OC(C(N)=O)C(C)(O)C3OC(N)=O)C(NC(C)=O)C2O)OC(C)C(OC2OC(C(=O)NC3=C(O)CCC3=O)C(O)C(O)C2O)C1O.N [1j, N1-[(2-Hydroxy-5-oxo-cyclopenten-1-yl)-(5S)-β-D-galactopyranuronamide]-(1→4)-2-acetamide-2,6-dideoxy-β-D-gluopyranosyl-(1→4)-[β-D-glucopyranosyl-(1→6)]-2-acetamido-2-deoxy-β-D-glucopyranosyl)-(1→2)-3-O-carbamoyl-1-O—{[(R)-2-carboxy-2-(3-((3′-methyl-[1,1′-biphenyl]-3-yl)methoxy)phenylmethan-1-yloxy)ethoxy]hydroxyphosphoryl}-4-C-methyl-α-D-glucopyranuronamide] | 16 | 16 | >250 >250 >250 | >250 >250 >250 | >250 >250 | >250 >250 | > 250 | 125 | >250 >250 >250 | > 250 | 0.98
2 | CC(=O)NC1C(OC2C(COC3OC(CO)C(O)C(O)C3O)OC(OC3C(OP(=O)(O)OCC(OCCCCCCCCCCC(F)(F)C(F)(F)C(F)(F)C(F)(F)C(F)(F)C(F)(F)C(F)(F)C(F)(F)F)C(=O)O)OC(C(N)=O)C(C)(O)C3OC(N)=O)C(NC(C)=O)C2O)OC(C)C(OC2OC(C(=O)NC3=C(O)CCC3=O)C(O)C(O)C2O)C1O.N [1f, N1-[(2-Hydroxy-5-oxo-cyclopenten-1-yl)-(5S)-β-D-galactopyranuronamide]-(1→4)-2-acetamide-2,6-dideoxy-β-D-gluopyranosyl-(1→4)-[β-D-glucopyranosyl-(1→6)]-2-acetamido-2-deoxy-β-D-glucopyranosyl)-(1→2)-3-O-carbamoyl-1-O—{[(R)-2-carboxy-2-(11,11,12,12,13,13,14,14,15,15,16,16,17,17,18,18,18-heptadecafluoro-octadecan-1-yloxy)ethoxy]hydroxyphosphoryl}-4-C-methyl-α-D-glucopyranuronamide] | 0.98 | 2.0 | 3.9 | 2.0 | 0.98 | 2.0 | 2.0 | 0.98 | 2.0 | 250 | > 0.16
3 | CC(=O)NC1C(OC2C(COC3OC(CO)C(O)C(O)C3O)OC(OC3C(OP(=O)(O)OCC(OCc4cccc(OCc5cccc(-c6cccc(OCc7ccccc7)c6)c5)c4)C(=O)O)OC(C(N)=O)C(C)(O)C3OC(N)=O)C(NC(C)=O)C2O)OC(C)C(OC2OC(C(=O)NC3=C(O)CCC3=O)C(O)C(O)C2O)C1O.N [1i, N1-[(2-Hydroxy-5-oxo-cyclopenten-1-yl)-(5S)-β-D-galactopyranuronamide]-(1→4)-2-acetamide-2,6-dideoxy-β-D-gluopyranosyl-(1→4)-[β-D-glucopyranosyl-(1→6)]-2-acetamido-2-deoxy-β-D-glucopyranosyl)-(1→2)-3-O-carbamoyl-1-O—{[(R)-2-carboxy-2-(3-((3′-(benzyloxy)-[1,1′-biphenyl]-3-yl)methoxy)phenylmethan-1-yloxy)ethoxy]hydroxyphosphoryl}-4-C-methyl-α-D-glucopyranuronamide] | 7.8 | 3.9 | 7.8 | 7.8 | 16 | 32 | 7.8 | 3.9 | 7.8 | > 250 | 0.49
4 | CCCCCCCCCCCCCCCCCCOC(COP(=O)(O)OC1OC(C(N)=O)C(C)(O)C(OC(N)=O)C1OC1OC(COC2OC(CO)C(O)C(O)C2O)C(OC2OC(C)C(OC3OC(C(=O)NC4=C(O)CCC4=O)C(O)C(O)C3O)C(O)C2NC(C)=O)C(O)C1NC(C)=O)C(=O)O.N [1e, N1-[(2-Hydroxy-5-oxo-cyclopenten-1-yl)-(5S)-β-D-galactopyranuronamide]-(1→4)-2-acetamide-2,6-dideoxy-β-D-gluopyranosyl-(1→4)-[β-D-glucopyranosyl-(1→6)]-2-acetamido-2-deoxy-β-D-glucopyranosyl)-(1→2)-3-O-carbamoyl-1-O—{[(R)-2-carboxy-2-(octadecan-1-yloxy)ethoxy]hydroxyphosphoryl}-4-C-methyl-α-D-glucopyranuronamide] | – | – | 2.0 | 0.98 | 0.49 | 0.98 | – | – | 0.98 | 63 | 0.0024
5 | CC(=O)NC1C(OC2C(COC3OC(CO)C(O)C(O)C3O)OC(OC3C(OP(=O)(O)OCC(OCC=C(C)CCC=C(C)CCC=C(C)CCC=C(C)C)C(=O)O)OC(C(N)=O)C(C)(O)C3OC(N)=O)C(NC(C)=O)C2O)OC(C)C(OC2OC(C(=O)NC3=C(O)CCC3=O)C(O)C(O)C2O)C1O.N [1b, N1-[(2-Hydroxy-5-oxo-cyclopenten-1-yl)-(5S)-β-D-galactopyranuronamide]-(1→4)-2-acetamide-2,6-dideoxy-β-D-gluopyranosyl-(1→4)-[β-D-glucopyranosyl-(1→6)]-2-acetamido-2-deoxy-β-D-glucopyranosyl)-(1→2)-3-O-carbamoyl-1-O—{[(R)-2-carboxy-2-((2Z,6E,10E)-3,7,11,15-tetramethyl-hexadeca-2,6,10,14-tetraen-1-yloxy)ethoxy]hydroxyphosphoryl}-4-C-methyl-α-D-glucopyranuronamide] | 3.9 | 2.0 | 3.9 | 2.0 | – | – | – | – | 3.9 | 63 | 0.061
6 | CC(=O)NC1C(OC2C(COC3OC(CO)C(O)C(O)C3O)OC(OC3C(OP(=O)(O)OCC(OCc4cccc(OCc5cccc(-c6cccc(OCc7cccc(-c8ccccc8)c7)c6)c5)c4)C(=O)O)OC(C(N)=O)C(C)(O)C3OC(N)=O)C(NC(C)=O)C2O)OC(C)C(OC2OC(C(=O)NC3=C(O)CCC3=O)C(O)C(O)C2O)C1O.N [1h, N1-[(2-Hydroxy-5-oxo-cyclopenten-1-yl)-(5S)-β-D-galactopyranuronamide]-(1→4)-2-acetamide-2,6-dideoxy-β-D-gluopyranosyl-(1→4)-[β-D-glucopyranosyl-(1→6)]-2-acetamido-2-deoxy-β-D-glucopyranosyl)-(1→2)-3-O-carbamoyl-1-O—{[(R)-2-carboxy-2-(3-((3′-([1,1′-biphenyl]-3-ylmethoxy)-[1,1′-biphenyl]-3-yl)methoxy)phenylmethan-1-yloxy)ethoxy]hydroxyphosphoryl}-4-C-methyl-α-D-glucopyranuronamide] | 2.0 | 0.98 | 0.39 | 0.20 | 0.39 | 0.78 | – | – | 0.20 | 125 | 0.039
7 | CCCCCCCCCCCCCCCCCCCCOC(COP(=O)(O)OC1OC(C(N)=O)C(C)(O)C(OC(N)=O)C1OC1OC(COC2OC(CO)C(O)C(O)C2O)C(OC2OC(C)C(OC3OC(C(=O)NC4=C(O)CCC4=O)C(O)C(O)C3O)C(O)C2NC(C)=O)C(O)C1NC(C)=O)C(=O)O.N [1d, N1-[(2-Hydroxy-5-oxo-cyclopenten-1-yl)-(5S)-β-D-galactopyranuronamide]-(1→4)-2-acetamide-2,6-dideoxy-β-D-gluopyranosyl-(1→4)-[β-D-glucopyranosyl-(1→6)]-2-acetamido-2-deoxy-β-D-glucopyranosyl)-(1→2)-3-O-carbamoyl-1-O—{[(R)-2-carboxy-2-(eicosan-1-yloxy)ethoxy]hydroxyphosphoryl}-4-C-methyl-α-D-glucopyranuronamide] | 3.1 | 2.0 | 1.3 | 0.63 | – | – | 1.3 | 0.63 | 0.63 | 7.8 | 0.0049
